Source: ChEMBL document CHEMBL4229418, “Design, synthesis and pharmacology of aortic-selective acyl-CoA: Cholesterol O-acyltransferase (ACAT/SOAT) inhibitors” (Bioorg Med Chem, 2018)

How the values were obtained:
[1] = system: Hamster; assay: Effect on lipid composition in Bio F1B hamster model of diet-induced atherosclerosis assessed as adrenal total cholesterol level at 1 mg/kg/day added to chow pellets (reference value: 10.54 mg/dl); type: functional, Cricetinae
[2] = Cmax in non-fasted Beagle dog at 30 mg/kg, po by LC-MS/MS analysis; type: ADME, organism-based, Canis lupus familiaris; set-up: dose 30 mg/kg, route oral; settings: in vivo
[3] = system: Hamster; assay: Antiatherosclerotic activity in Bio F1B hamster model of diet-induced atherosclerosis assessed as liver free cholesterol level at 3 mg/kg/day added to chow pellets (reference value: 7.94 mg/dl); type: functional, Cricetinae
[4] = system: Hamster; assay: Antiatherosclerotic activity in Bio F1B hamster model of diet-induced atherosclerosis assessed as adrenal cholesterol ester level at 3 mg/kg/day added to chow pellets (reference value: 5.88 mg/dl); type: functional, Cricetinae
[5] = system: Hamster; assay: Antiatherosclerotic activity in Bio F1B hamster model of diet-induced atherosclerosis assessed as reduction in lipid accumulation areas in aortic arch at 30 mg/kg/day added to chow pellets by oil red O staining based assay relative to control; type: functional; settings: Cricetinae
[6] = system: Hamster; assay: Toxicity in Bio F1B hamster model of diet-induced atherosclerosis assessed as adrenal free cholesterol level at 1 mg/kg/day added to chow pellets (reference value: 4.65 mg/dl); type: organism-based; settings: cricetinae, in vivo
[7] = system: Hamster; assay: Antiatherosclerotic activity in Bio F1B hamster model of diet-induced atherosclerosis assessed as reduction in lipid accumulation areas in aortic arch at 3 mg/kg/day added to chow pellets by oil red O staining based assay relative to control; type: functional; settings: Cricetinae
[8] = Cmax in fasted Beagle dog at 30 mg/kg, po by LC-MS/MS analysis; type: ADME, organism-based, Canis lupus familiaris; set-up: dose 30 mg/kg, route oral; settings: in vivo
[9] = AUC (0 to 8 hrs) in non-fasted Beagle dog at 30 mg/kg, po by LC-MS/MS analysis; type: ADME, organism-based, Canis lupus familiaris; set-up: time < 8 hr, dose 30 mg/kg, route oral; settings: in vivo
[10] = system: Hamster; assay: Antiatherosclerotic activity in Bio F1B hamster model of diet-induced atherosclerosis assessed as reduction in lipid accumulation areas in aortic arch at 1 mg/kg/day added to chow pellets by oil red O staining based assay relative to control; type: functional; settings: Cricetinae
[11] = system: Hamster; assay: Effect on lipid composition in Bio F1B hamster model of diet-induced atherosclerosis assessed as intestine total cholesterol level at 10 mg/kg/day added to chow pellets (reference value: 4.51 mg/dl); type: functional, Cricetinae
[12] = system: Hamster; assay: Antiatherosclerotic activity in Bio F1B hamster model of diet-induced atherosclerosis assessed as intestinal free cholesterol level at 3 mg/kg/day added to chow pellets (reference value: 3.41 mg/dl); type: functional, Cricetinae
[13] = Toxicity in rat measured over 2 weeks; type: organism-based; settings: in vivo
[14] = system: Hamster; assay: Antiatherosclerotic activity in Bio F1B hamster model of diet-induced atherosclerosis assessed as plasma cholesterol ester level at 3 mg/kg/day added to chow pellets (reference value: 1379.3 mg/dl); type: functional, Cricetinae
[15] = system: Hamster; assay: Antiatherosclerotic activity in Bio F1B hamster model of diet-induced atherosclerosis assessed as plasma free cholesterol level at 1 mg/kg/day added to chow pellets (reference value: 780.8 mg/dl); type: functional, Cricetinae
[16] = system: Hamster; assay: Antiatherosclerotic activity in Bio F1B hamster model of diet-induced atherosclerosis assessed as liver free cholesterol level at 10 mg/kg/day added to chow pellets (reference value: 7.94 mg/dl); type: functional, Cricetinae
[17] = system: Hamster; assay: Antiatherosclerotic activity in Bio F1B hamster model of diet-induced atherosclerosis assessed as intestinal cholesterol ester level at 3 mg/kg/day added to chow pellets (reference value: 1.09 mg/dl); type: functional, Cricetinae
[18] = system: Canis familiaris; assay: Toxicity in dog assessed as induction of necrosis in adrenal reticular zona cells at 100 mg/kg measured over 2 weeks; type: organism-based, Canis lupus familiaris; settings: in vivo, 336 h
[19] = system: Hamster; assay: Antiatherosclerotic activity in Bio F1B hamster model of diet-induced atherosclerosis assessed as plasma free cholesterol level at 10 mg/kg/day added to chow pellets (reference value: 780.8 mg/dl); type: functional, Cricetinae
[20] = system: Hamster; assay: Antiatherosclerotic activity in Bio F1B hamster model of diet-induced atherosclerosis assessed as plasma cholesterol ester level at 30 mg/kg/day added to chow pellets (reference value: 1379.3 mg/dl); type: functional, Cricetinae
[21] = system: Hamster; assay: Toxicity in Bio F1B hamster model of diet-induced atherosclerosis assessed as adrenal free cholesterol level at 30 mg/kg/day added to chow pellets (reference value: 4.65 mg/dl); type: organism-based; settings: cricetinae, in vivo
[22] = AUC (0 to 8 hrs) in non-fasted Sprague-Dawley rat at 30 mg/kg, po by LC-MS/MS analysis; type: ADME, organism-based; set-up: dose 30 mg/kg, time < 8 hr, route oral; settings: in vivo
[23] = system: Hamster; assay: Effect on lipid composition in Bio F1B hamster model of diet-induced atherosclerosis assessed as liver total cholesterol level at 10 mg/kg/day added to chow pellets (reference value: 31.99 mg/dl); type: functional, Cricetinae
[24] = system: Hamster; assay: Antiatherosclerotic activity in Bio F1B hamster model of diet-induced atherosclerosis assessed as plasma free cholesterol level at 30 mg/kg/day added to chow pellets (reference value: 780.8 mg/dl); type: functional, Cricetinae
[25] = system: Hamster; assay: Antiatherosclerotic activity in Bio F1B hamster model of diet-induced atherosclerosis assessed as liver cholesterol ester level at 3 mg/kg/day added to chow pellets (reference value: 24.04 mg/dl); type: functional, Cricetinae
[26] = system: Hamster; assay: Antiatherosclerotic activity in Bio F1B hamster model of diet-induced atherosclerosis assessed as intestinal cholesterol ester level at 1 mg/kg/day added to chow pellets (reference value: 1.09 mg/dl); type: functional, Cricetinae
[27] = system: Hamster; assay: Effect on lipid composition in Bio F1B hamster model of diet-induced atherosclerosis assessed as liver total cholesterol level at 1 mg/kg/day added to chow pellets (reference value: 31.99 mg/dl); type: functional, Cricetinae
[28] = system: Hamster; assay: Antiatherosclerotic activity in Bio F1B hamster model of diet-induced atherosclerosis assessed as adrenal cholesterol ester level at 30 mg/kg/day added to chow pellets (reference value: 5.88 mg/dl); type: functional, Cricetinae
[29] = system: Hamster; assay: Antiatherosclerotic activity in Bio F1B hamster model of diet-induced atherosclerosis assessed as liver cholesterol ester level at 10 mg/kg/day added to chow pellets (reference value: 24.04 mg/dl); type: functional, Cricetinae

## CC(C)c1cccc(C(C)C)c1NC(=O)CCCCCCCCSc1nc2ccccc2o1
[1]
  Activity: 11.13 mg/dL
[2]
  Cmax: 582 ng/mL
[3]
  Activity: 5.95 mg/dL
[4]
  Activity: 6.02 mg/dL
[5]
  inhibition in vivo at 30 mg/kg/day: 7%
[6]
  Activity: 4.41 mg/dL
[7]
  inhibition in vivo at 3 mg/kg/day: 69%
[8]
  Cmax: 5 ng/mL
[9]
  AUC(0-t) at 8 h: 2960 ng·h/mL
[10]
  inhibition in vivo at 1 mg/kg/day: 74%
[11]
  Activity: 4.07 mg/dL
[12]
  Activity: 3.18 mg/dL
[13]
  NOAEL at 336 h: 30 mg/kg
[14]
  Activity: 1439.6 mg/dL
[15]
  Activity: 828.2 mg/dL
[16]
  Activity: 3.87 mg/dL
[17]
  Activity: 0.94 mg/dL
[18]
  Activity: Toxic
[19]
  Activity: 491.9 mg/dL
[20]
  Activity: 259 mg/dL
[21]
  Activity: 2.4 mg/dL
[22]
  AUC(0-t) at 8 h: 358 ng·h/mL
[23]
  Activity: 11.52 mg/dL
[24]
  Activity: 217.2 mg/dL
[25]
  Activity: 17.67 mg/dL
[26]
  Activity: 0.98 mg/dL
[27]
  Activity: 30.75 mg/dL
[28]
  Activity: 1.08 mg/dL
[29]
  Activity: 7.65 mg/dL
